# According to ChEMBL document CHEMBL5715954, “Silencing c-Myc translation as a therapeutic strategy through targeting PI3Kδ and CK1ε in hematological malignancies” (Blood, 2017):
# Experiments:
# Design in all cases: scale not given: the % may be the effect or the level left
# [1] = molecular target: T1, Aurora kinase A (Homo sapiens) (UniProt O14965); assay: Inhibition of human Aurora A assessed as enzyme activity at 1 uM using H-LRRASLG as substrate preincubated for 20 mins followed by [gamma-33P]-ATP addition and measured after 120 mins by radiometric Hot-SpotSM Kinase assay relative to control
# T1 sequence (whole entry): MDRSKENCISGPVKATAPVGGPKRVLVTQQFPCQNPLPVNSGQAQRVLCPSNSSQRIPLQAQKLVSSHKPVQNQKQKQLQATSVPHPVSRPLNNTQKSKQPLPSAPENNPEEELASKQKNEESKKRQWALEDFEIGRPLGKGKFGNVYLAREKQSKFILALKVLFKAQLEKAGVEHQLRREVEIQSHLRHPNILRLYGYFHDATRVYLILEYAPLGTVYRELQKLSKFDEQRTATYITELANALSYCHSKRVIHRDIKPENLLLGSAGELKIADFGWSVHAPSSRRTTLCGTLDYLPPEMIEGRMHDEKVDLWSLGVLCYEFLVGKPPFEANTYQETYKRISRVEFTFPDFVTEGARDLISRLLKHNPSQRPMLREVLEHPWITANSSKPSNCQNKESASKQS
# [2] = molecular target: Maternal embryonic leucine zipper kinase (Homo sapiens) (UniProt Q14680); assay: Inhibition of human MELK assessed as enzyme activity at 1 uM using KKLNRTLSFAEPG as substrate preincubated for 20 mins followed by [gamma-33P]-ATP addition and measured after 120 mins by radiometric Hot-SpotSM Kinase assay relative to control
# [3] = molecular target: T2, Dual specificity mitogen-activated protein kinase kinase 4 (Homo sapiens) (UniProt P45985); assay: Inhibition of human MKK4 assessed as enzyme activity at 1 uM using JNK1 (K55M) as substrate preincubated for 20 mins followed by [gamma-33P]-ATP addition and measured after 120 mins by radiometric Hot-SpotSM Kinase assay relative to control
# T2 sequence (whole entry): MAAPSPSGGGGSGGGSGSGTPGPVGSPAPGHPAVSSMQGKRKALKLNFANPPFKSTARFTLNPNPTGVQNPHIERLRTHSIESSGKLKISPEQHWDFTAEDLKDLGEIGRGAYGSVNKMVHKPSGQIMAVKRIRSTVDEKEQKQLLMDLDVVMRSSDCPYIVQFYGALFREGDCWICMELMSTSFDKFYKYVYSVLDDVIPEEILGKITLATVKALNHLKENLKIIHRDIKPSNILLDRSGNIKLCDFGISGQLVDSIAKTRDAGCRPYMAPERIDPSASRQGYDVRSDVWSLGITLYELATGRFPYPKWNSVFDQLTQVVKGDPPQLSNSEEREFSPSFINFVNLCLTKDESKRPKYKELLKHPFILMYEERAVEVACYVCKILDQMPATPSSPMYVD
# [4] = molecular target: Serine/threonine-protein kinase WNK2 (Homo sapiens) (UniProt Q9Y3S1); assay: Inhibition of human WNK2 assessed as enzyme activity at 1 uM using myelin basic protein as substrate preincubated for 20 mins followed by [gamma-33P]-ATP addition and measured after 120 mins by radiometric Hot-SpotSM Kinase assay relative to control
# [5] = molecular target: T3, Mitogen-activated protein kinase kinase kinase 19 (Homo sapiens) (UniProt Q56UN5); assay: Inhibition of human YSK4/MAP3K19 assessed as enzyme activity at 1 uM using myelin basic protein as substrate preincubated for 20 mins followed by [gamma-33P]-ATP addition and measured after 120 mins by radiometric Hot-SpotSM Kinase assay relative to control
# T3 sequence (whole entry): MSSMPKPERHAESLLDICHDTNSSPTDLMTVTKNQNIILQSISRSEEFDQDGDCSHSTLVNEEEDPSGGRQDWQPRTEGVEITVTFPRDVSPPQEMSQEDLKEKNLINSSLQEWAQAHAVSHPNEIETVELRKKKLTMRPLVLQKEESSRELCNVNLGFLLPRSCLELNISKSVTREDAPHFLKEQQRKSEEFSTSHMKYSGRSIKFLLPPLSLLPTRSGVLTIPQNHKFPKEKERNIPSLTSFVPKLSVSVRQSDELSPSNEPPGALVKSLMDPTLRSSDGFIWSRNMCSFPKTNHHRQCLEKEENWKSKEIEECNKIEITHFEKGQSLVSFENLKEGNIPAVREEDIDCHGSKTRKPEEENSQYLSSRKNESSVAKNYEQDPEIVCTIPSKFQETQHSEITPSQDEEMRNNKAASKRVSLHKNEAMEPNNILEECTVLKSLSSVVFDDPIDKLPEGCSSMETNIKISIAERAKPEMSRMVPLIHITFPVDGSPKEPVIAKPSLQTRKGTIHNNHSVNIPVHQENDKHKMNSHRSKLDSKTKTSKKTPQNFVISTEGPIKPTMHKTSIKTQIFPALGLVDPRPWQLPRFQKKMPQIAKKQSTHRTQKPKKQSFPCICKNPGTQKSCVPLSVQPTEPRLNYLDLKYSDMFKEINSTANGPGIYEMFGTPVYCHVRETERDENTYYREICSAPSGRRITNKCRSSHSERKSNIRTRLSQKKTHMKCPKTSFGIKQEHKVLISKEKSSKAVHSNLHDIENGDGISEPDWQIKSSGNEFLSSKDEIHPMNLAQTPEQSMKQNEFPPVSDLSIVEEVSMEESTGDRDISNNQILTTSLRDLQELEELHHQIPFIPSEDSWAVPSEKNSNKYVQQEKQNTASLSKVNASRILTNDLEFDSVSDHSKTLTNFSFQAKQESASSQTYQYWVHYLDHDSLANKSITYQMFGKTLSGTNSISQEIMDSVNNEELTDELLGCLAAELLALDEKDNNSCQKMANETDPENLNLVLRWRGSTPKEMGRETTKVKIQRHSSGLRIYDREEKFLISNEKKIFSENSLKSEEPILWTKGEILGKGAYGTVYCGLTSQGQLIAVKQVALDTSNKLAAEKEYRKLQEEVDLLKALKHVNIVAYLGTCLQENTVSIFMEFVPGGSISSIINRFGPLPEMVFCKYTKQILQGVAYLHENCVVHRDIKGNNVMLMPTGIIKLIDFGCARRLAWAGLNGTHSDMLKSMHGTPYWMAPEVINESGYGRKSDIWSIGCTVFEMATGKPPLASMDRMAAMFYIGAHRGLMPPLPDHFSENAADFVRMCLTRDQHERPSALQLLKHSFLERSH
# Sequence of Serine/threonine-protein kinase WNK2 (Homo sapiens) (Q9Y3S1 whole entry): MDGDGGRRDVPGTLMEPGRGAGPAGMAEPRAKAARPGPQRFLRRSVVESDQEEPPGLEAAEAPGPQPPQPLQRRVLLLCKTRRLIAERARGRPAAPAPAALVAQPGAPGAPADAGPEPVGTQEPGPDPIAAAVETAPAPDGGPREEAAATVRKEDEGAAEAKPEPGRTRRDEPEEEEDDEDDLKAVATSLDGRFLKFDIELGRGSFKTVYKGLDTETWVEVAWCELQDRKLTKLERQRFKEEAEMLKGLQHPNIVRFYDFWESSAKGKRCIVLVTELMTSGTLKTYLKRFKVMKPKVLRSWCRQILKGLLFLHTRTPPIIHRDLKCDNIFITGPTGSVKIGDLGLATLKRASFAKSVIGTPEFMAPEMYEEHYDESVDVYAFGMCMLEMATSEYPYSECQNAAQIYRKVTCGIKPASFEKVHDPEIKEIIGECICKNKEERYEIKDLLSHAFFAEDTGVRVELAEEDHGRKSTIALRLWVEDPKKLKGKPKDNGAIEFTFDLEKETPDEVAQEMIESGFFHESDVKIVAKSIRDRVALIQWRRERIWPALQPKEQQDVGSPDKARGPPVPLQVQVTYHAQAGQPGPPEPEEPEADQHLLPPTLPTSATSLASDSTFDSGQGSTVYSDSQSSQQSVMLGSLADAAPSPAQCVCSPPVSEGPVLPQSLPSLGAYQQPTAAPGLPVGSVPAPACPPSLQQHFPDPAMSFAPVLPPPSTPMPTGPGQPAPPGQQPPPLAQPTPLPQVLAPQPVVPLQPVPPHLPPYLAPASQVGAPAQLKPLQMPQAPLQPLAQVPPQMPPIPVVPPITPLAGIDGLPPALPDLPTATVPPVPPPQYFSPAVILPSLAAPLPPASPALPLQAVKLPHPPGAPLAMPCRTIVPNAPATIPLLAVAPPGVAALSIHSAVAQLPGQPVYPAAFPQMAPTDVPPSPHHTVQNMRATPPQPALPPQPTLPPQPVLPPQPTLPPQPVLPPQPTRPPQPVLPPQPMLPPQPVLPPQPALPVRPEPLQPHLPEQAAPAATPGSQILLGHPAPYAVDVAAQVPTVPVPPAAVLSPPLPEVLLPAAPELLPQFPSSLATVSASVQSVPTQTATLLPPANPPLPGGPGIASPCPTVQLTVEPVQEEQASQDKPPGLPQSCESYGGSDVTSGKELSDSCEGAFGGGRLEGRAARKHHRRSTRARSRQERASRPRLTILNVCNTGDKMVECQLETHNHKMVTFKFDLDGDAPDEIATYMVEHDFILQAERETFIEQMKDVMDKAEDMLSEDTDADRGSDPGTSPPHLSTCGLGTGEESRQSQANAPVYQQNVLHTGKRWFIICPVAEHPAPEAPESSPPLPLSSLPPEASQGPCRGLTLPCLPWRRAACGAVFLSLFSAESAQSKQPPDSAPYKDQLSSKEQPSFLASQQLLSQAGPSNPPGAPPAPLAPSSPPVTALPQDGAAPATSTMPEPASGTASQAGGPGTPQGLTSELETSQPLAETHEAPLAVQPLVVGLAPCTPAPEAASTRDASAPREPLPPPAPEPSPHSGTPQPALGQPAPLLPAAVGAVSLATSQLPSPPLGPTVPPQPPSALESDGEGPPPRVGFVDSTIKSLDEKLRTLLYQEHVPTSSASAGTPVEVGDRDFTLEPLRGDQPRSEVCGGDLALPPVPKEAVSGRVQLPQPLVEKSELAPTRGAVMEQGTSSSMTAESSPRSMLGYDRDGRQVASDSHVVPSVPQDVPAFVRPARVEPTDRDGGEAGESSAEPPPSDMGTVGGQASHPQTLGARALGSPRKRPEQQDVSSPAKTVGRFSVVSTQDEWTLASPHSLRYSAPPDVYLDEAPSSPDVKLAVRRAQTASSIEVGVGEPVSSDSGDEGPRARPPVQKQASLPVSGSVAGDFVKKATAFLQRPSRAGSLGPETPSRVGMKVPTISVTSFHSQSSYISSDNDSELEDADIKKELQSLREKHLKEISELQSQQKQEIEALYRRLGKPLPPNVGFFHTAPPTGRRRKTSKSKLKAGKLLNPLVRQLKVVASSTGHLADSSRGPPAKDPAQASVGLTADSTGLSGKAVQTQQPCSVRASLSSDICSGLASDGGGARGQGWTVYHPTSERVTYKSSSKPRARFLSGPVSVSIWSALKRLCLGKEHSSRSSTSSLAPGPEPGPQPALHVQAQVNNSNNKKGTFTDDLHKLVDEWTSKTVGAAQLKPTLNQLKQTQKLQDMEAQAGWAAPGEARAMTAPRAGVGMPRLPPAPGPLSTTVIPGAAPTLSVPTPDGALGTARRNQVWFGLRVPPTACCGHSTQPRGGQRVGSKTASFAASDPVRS
# Sequence of Maternal embryonic leucine zipper kinase (Homo sapiens) (Q14680 whole entry, looked up): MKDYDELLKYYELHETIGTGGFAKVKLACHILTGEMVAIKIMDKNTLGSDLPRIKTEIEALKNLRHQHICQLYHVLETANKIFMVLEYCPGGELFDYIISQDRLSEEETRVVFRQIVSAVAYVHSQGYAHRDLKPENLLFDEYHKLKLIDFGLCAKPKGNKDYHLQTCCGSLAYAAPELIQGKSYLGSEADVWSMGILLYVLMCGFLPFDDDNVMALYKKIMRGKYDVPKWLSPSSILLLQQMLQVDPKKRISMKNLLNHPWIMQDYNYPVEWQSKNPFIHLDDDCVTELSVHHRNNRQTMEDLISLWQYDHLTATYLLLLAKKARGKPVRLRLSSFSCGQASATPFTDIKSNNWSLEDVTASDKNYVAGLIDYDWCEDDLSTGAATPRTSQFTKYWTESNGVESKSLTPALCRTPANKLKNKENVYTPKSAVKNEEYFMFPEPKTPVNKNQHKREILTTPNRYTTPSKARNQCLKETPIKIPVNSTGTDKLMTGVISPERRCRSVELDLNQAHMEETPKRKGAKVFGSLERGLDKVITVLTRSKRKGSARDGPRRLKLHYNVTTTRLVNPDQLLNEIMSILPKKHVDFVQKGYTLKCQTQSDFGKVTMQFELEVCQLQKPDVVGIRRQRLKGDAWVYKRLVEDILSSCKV
Compound,Activity [1] [%],Activity [2] [%],Activity [3] [%],Activity [4] [%],Activity [5] [%]
CC[C@H](Nc1ncnc2[nH]cnc12)c1nc2cccc(F)c2c(=O)n1-c1ccccc1,104,93.6,99.9,92.3,90.5
C[C@H](Nc1ncnc2nc[nH]c12)c1cc2cccc(Cl)c2c(=O)n1-c1ccccc1,96.8,94.5,96.9,90.5,91.6
CC(C)Oc1ccc(-c2nn([C@@H](C)c3oc4ccc(F)cc4c(=O)c3-c3cccc(F)c3)c3ncnc(N)c23)cc1F [UMBRALISIB],99.5,105,98.7,82.2,92.4
